Here are results for ten compounds from patent publication US6486185B1, “3-heteroarylidene-2-indolinone protein kinase inhibitors” (Sugen, Inc., priority 1997, dated 2002).

pIC50: −log10 of the molar value.

The test deals with T1, EGFR (Homo sapiens, UniProt P00533).
T1 construct: expressed in transfected cells; host or cells: NIH 3T3/C7
T1 sequence (P00533 25-1210): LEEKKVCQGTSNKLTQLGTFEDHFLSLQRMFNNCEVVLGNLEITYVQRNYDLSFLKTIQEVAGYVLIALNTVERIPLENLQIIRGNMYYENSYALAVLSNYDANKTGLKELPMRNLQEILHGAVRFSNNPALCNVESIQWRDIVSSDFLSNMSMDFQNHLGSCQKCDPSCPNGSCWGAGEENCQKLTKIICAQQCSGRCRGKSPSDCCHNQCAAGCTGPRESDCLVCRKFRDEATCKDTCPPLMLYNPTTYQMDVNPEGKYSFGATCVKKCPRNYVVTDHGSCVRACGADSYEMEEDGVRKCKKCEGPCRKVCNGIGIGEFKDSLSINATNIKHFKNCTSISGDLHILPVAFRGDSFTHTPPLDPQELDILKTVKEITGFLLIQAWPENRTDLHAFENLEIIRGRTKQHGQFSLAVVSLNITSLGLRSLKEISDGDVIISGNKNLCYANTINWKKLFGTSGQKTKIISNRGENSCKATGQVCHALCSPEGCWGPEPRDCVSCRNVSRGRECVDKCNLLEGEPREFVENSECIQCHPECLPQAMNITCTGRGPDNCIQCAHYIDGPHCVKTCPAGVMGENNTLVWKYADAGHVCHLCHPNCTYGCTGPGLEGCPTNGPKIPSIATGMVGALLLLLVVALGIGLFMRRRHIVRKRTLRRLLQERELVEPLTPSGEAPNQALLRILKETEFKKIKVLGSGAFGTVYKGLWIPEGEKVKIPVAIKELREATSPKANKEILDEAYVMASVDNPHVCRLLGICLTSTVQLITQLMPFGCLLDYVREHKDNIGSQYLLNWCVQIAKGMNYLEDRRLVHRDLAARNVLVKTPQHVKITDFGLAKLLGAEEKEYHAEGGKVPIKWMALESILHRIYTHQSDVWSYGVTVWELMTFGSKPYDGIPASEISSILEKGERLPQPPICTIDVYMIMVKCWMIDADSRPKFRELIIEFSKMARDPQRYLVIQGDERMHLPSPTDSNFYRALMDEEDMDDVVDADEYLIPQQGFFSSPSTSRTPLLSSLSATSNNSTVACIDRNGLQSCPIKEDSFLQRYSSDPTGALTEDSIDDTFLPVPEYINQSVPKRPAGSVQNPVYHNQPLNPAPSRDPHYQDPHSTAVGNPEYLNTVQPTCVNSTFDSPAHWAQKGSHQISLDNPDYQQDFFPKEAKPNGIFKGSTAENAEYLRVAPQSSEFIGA
Description: EGF receptor ELISA in cells engineered to express human EGF-R. The conditions noted are these: 50% inhibition of PTK activity over control. In kind it is cell-based. The method, then:
The cellular/catalytic assays described herein are performed in an ELISA format. The general procedure is a follows: a compound is introduced to cells expressing the test kinase, either naturally or recombinantly, for some period of time after which, if the test kinase is a receptor, a ligand known to activate the receptor's activity is added. The cells are lysed and the lysate is transferred to the wells of an ELISA plate previously coated with a specific antibody recognizing the substrate of the enzymatic phosphorylation reaction. Non-substrate components of the cell lysate are washed away and the amount of phosphorylation on the substrate is detected with an antibody specifically recognizing phosphotyrosine compared with control cells that were not contacted with a test compound.
EGF Receptor kinase activity in cells genetically engineered to express human EGF-R can be measured as described below:
The following materials and reagents are used
a. EGF Ligand: stock concentration=16.5 μM; EGF 201, TOYOBO, Co., Ltd. Japan.
b. 05-101 (UBI) (a monoclonal antibody recognizing an EGFR extracellular domain).
c. Anti-phosphotyosine antibody (anti-Ptyr) (polyclonal).
d. Detection antibody: Goat anti-rabbit lgG horse radish peroxidase conjugate, TAGO, Inc., Burlingame, Calif.
Keep solution in dark at 4 C until used.
The following protocol is used:
1. Coat ELISA plates (Corning, 96 well, Cat. #25805-96) with 05-101 antibody at 0.5 μg per well in PBS, 150 μL final volume/well, and store overnight at 4° C. Coated plates are good for up to 10 days when stored at 4° C.
2. On day of use, remove coating buffer and replace with blocking buffer (5% Carnation Instant NonFat Dry Milk in PBS). Incubate the plate, shaking, at room temperature (about 23° C. to 25° C.) for 30 minutes. Just prior to use, remove blocking buffer and wash plate 4 times with TBST buffer.
1. NIH 3T3/C7 cell line (Honegger, et al., Cell 51:199-209, 1987) can be use for this assay.
2. Choose dishes having 80-90% confluence for the experiment. Trypsinize cells and stop reaction by adding 10% CS DMEM medium. Suspend cells in DMEM medium (10% CS DMEM medium) and centrifuge once at 1000 rpm at room temperature for 5 minutes.
3. Resuspend cells in seeding medium (DMEM, 0.5% bovine serum), and count the cells using trypan blue. Viability above 90% is acceptable. Seed cells in DMEM medium (0.5% bovine serum) at a density of 10,000 cells per well, 100 μL per well, in a 96 well microtiter plate. Incubate seeded cells in 5% CO2 at 37° C. for about 40 hours.
1. Check seeded cells for contamination using an inverted microscope. Dilute drug stock (10 mg/mL in DMSO) 1:10 in DMEM medium, then transfer 5 μL to a test well for a final drug dilution of 1:200 and a final DMSO concentration of 1%. Control wells receive DMSO alone. Incubate in 5% CO2 at 37° C. for one hour.
2. Prepare EGF ligand: dilute stock EGF in DMEM so that upon transfer of 10 μL dilute EGF (1:12 dilution), 25 nM final concentration is attained.
3. Prepare fresh 10 mL HNTG* sufficient for 100 μL per well wherein HNTG* comprises: HNTG stock (2.0 mL), milli-Q H2O (7.3 mL), EDTA, 100 mM, pH 7.0 (0.5 mL), Na3VO4 0.5 M (0.1 mL) and Na4(P2O7), 0.2 M (0.1 mL).
5. After two hours incubation with drug, add prepared EGF ligand to cells, 10 μL per well, to yield a final concentration of 25 nM. Control wells receive DMEM alone. Incubate, shaking, at room temperature, for 5 minutes.
6. Remove drug, EGF, and DMEM. Wash cells twice with PBS. Transfer HNTG* to cells, 100 μL per well. Place on ice for 5 minutes. Meanwhile, remove blocking buffer from other ELISA plate and wash with TBST as described above.
7. With a pipette tip securely fitted to a micropipettor, scrape cells from plate and homogenize cell material by repeatedly aspirating and dispensing the HNTG* lysis buffer. Transfer lysate to a coated, blocked, and washed ELISA plate. Incubate shaking at room temperature for one hour.
8. Remove lysate and wash 4 times with TBST. […]
For orientation: ELISA stands for enzyme-linked immunosorbent assay.
For the compound `CCOC(=O)c1c(C)[nH]c(C=C2C(=O)Nc3ccc(Br)cc32)c1C` [3-(2,4-dimethyl-3-ethoxycarbonylpyrrol-5-methylidenyl)-5-bromo-2-indolinone], the pIC50 was less than 4.60. As for `COC(=O)CCc1c[nH]c(C=C2C(=O)Nc3ccccc32)c1C` [3-[4-(2-methoxycarbonylethyl-3-methylpyrrol-2-methylidenyl]-2-indolinone], the figure is less than 4.00; as for `CCOC(=O)c1[nH]c(C=C2C(=O)Nc3ccccc32)c(C(C)=O)c1C` [3-(4-acetyl-2-ethoxycarbonyl-3-methylpyrrol-5-methylidenyl)-2-indolinone], less than 5.00. The compound `COC(=O)Cc1c(Cl)[nH]c(C=C2C(=O)Nc3ccccc32)c1C(=O)OC` [3-(2-chloro-4-methoxycarbonyl-3-methoxycarbonylmethylpyrrol-5-methylidenyl)-2-indolinone] had a pIC50 of less than 4.30. In turn, `CCOC(=O)c1c[nH]c(C=C2C(=O)Nc3ccccc32)c1C` [3-(4-ethoxycarbonyl-3-methylpyrrol-2-methylidenyl)-2-indolinone] showed a pIC50 of less than 4.00. As for `CCOC(=O)c1c(C)[nH]c(C=C2C(=O)Nc3ccc(NC(=O)c4ccc(C(=O)OC)cc4)cc32)c1C` [3-(2,4-dimethyl-3-ethoxycarbonylpyrrol-5-methylidenyl)-5-(4-methoxycarbonylbenzamido)-2-indolinone], the figure is less than 5.00; as for `CCOC(=O)CCc1c(C(=O)OCC)[nH]c(C=C2C(=O)Nc3ccccc32)c1CC(=O)OCC` [3-[2-ethoxycarbonyl-3-(2-ethoxycarbonylethyl)-4-ethoxycarbonylmethyl)pyrrol-5-methylidenyl)-2-indolinone], less than 5.00; as for `COC(=O)CCc1c[nH]c(C=C2C(=O)Nc3cc(OC)c(OC)cc32)c1C` [3-[4-(2-methoxycarbonylethyl)-3-methylpyrrol-2-methylidenyl]-5,6-dimethoxy-2-indolinone], less than 4.30. `CC(=O)c1[nH]c(C=C2C(=O)Nc3ccccc32)c(C)c1C` [3-(2-acetyl-3,4-dimethylpyrrol-5-methylidenyl)-2-indolinone] gave a pIC50 of less than 4.00.

Turning to `Cc1c[nH]c(C=C2C(=O)Nc3ccccc32)c1CCC(=O)O` [3-[3-(2-carboxyethyl-4-methylpyrrol-2-methylidenyl]-2-indolinone], the pIC50 was less than 4.00.

The pIC50 is the IC50 on a negative log10 scale, so that one unit is a factor of ten.
